# Data reported in publication PMC3378952, “Plasmodium subtilisin-like protease 1 (SUB1): Insights into the active-site structure, specificity and function of a pan-malaria drug target” (International Journal for Parasitology, 2012).
# “And” between values parts separate entries of the source, which are not always exact repeats. Identical values can stand only once. *1 amine or outer side, *2 acyl side, *3 side chain or, on linkers, in order; H or OH if unused. Where a SMILES comes first, the peptide text is derived from it. Where no end group is shown, it is not given here. [ ]: non-standard residue; d: D form. The star is where a group is joined. ξ: configuration not given here. ξ3Amino2oxobutanoyl = CC(N[*:1])C(=O)C(=O)[*:2]; Abu(ψCOCO) = CC[C@H](N[*:1])C(=O)C(=O)[*:2]; AMC = Cc1cc(=O)oc2cc(N*)ccc12; βAla = NCCC(=O)O; NHcPr = C1CC1N*
# T1: recombinant Plasmodium falciparum subtilisin-like protease 1 (rPfSUB1), p54/p47 protease species (Plasmodium falciparum, UniProt O61142 218-690)
# T1 sequence: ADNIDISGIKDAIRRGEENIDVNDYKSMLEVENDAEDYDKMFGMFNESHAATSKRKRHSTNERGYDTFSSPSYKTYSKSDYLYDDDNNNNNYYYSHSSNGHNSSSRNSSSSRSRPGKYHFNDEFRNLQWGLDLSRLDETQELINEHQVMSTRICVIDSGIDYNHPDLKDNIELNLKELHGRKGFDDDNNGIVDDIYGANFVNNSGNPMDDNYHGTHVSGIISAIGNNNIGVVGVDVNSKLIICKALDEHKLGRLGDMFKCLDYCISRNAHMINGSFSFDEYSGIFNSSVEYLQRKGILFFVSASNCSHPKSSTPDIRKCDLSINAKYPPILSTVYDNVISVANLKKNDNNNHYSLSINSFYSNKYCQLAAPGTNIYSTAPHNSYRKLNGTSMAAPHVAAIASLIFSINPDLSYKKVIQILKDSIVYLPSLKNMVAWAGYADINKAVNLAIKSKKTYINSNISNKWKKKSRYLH
# Tests used:
# [1] = target: T2, rPfSUB1cat (Plasmodium falciparum, UniProt Q8I0V0); assay: Cleavage of unlabelled and AMC peptide substrates by rPfSUB1cat (RP-HPLC); type: biochemical; conditions: for hydrolysis by rPfSUB1cat: prolonged incubations, data not shown; for reduction of substrate peak intensity: by 120 min digestion of equimolar mixture, RP-HPLC
# T2 construct: core domain (rPfSUB1cat) comprising Ser328 to Tyr671; made in house; host or cells: baculovirus-infected insect cells (Tn5), then limited chymotrypsin digestion
# Excerpt: (SERA4st1F-6R12); Ac-CITAQDDEEC (called SERA4st1F-6R); and Ac-[…] (SERA4st1F-6R-S). […] Initial hydrolysis rates were then plotted against inhibitor concentration.
# In a third approach to investigating the role of prime side interactions in PfSUB1–substrate recognition, we produced a modified form of the SERA4st1 peptide substrate (called SERA4st1-ADA) in which both the P1′ and P3′ residues were replaced by Ala. Based on our MD data, these substitutions would be predicted to abolish potentially important stabilizing interactions with the S′ surface of the enzyme. To compare cleavage efficiencies of SERA4st1 and SERA4st1-ADA, we used a previously-described method in which an equimolar mixture of the two peptides was supplemented with rPfSUB1cat and the rates of peptide hydrolysis established by RP-HPLC analysis of the resulting digestion products ([Child et al., 2010]). Under such conditions, because the peptides effectively act as competing substrates, their relative initial rates of hydrolysis are solely a function of the ability of PfSUB1 to discriminate between them, and so are directly proportional to their relative kcat/Km values, irrespective of their concentration ([Cornish-Bowden, 2004]).
# [2] = target: T3, PbSUB1 (Plasmodium berghei, UniProt A0A509AM03); assay: biochemical
# T3 construct: recombinant Plasmodium falciparum SUB1 catalytic domain (rPfSUB1cat; closed circles) and rPbSUB1cat (closed triangles); 6-His (C); made in house; host or cells: baculovirus-infected insect cells (Tn5), then limited chymotrypsin digestion
# T3 sequence (A0A509AM03 257-574): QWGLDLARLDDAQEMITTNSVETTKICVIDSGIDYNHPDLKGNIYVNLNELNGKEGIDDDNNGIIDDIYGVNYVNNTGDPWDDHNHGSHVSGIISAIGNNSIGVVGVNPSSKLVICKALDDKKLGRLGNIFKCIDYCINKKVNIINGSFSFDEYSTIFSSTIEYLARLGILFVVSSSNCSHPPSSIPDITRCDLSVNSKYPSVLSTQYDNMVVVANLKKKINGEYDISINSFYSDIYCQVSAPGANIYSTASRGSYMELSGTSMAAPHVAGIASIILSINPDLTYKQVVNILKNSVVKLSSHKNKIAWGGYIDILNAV
# Excerpt: (§1) Initial hydrolysis rates were then plotted against inhibitor concentration.
# [3] = target: T4, rPvSUB1 (Plasmodium vivax, UniProt E6Y8B9); assay: biochemical; conditions: IC50 against rPvSUB1, dose-response
# T4 construct: 6-His (C); made in house; host or cells: baculovirus-infected insect cells (Tn5), then limited chymotrypsin digestion
# T4 sequence (E6Y8B9 287-604): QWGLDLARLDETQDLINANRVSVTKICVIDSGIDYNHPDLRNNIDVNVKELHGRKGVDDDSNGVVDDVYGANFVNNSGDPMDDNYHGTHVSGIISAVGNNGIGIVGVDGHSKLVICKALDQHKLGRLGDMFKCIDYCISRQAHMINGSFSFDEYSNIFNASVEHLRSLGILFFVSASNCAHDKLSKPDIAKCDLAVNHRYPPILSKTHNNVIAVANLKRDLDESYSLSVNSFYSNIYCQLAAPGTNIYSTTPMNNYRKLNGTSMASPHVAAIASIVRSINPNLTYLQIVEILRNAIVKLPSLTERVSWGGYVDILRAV
# Excerpt: as §1
# [4] = target: rPfSUB1cat (recombinant P. falciparum SUB1 catalytic domain) (Plasmodium falciparum, UniProt Q8I0V0); assay: biochemical; conditions: for IC50: IC50 for steady-state inhibition of rPfSUB1cat, dose-response, substrate 0.1 μM
# [5] = system: PfSUB1; conditions: cited from earlier work
# [6] = target: T2, rPfSUB1cat; type: biochemical; conditions: substrates 0.1 μM
# Excerpt: as §1
# [7] = system: rPbSUB1cat; conditions: substrates 0.1 μM
# Excerpt: as §1
# [8] = target: T5, rPbSUB1 (Plasmodium berghei, UniProt A0A509AM03); assay: Cleavage of unlabelled N-acetylated decapeptides by rPbSUB1 (RP-HPLC); type: biochemical; conditions: RP-HPLC examination of digestion products
# T5 construct: recombinant Plasmodium falciparum SUB1 catalytic domain (rPfSUB1cat; closed circles) and rPbSUB1cat (closed triangles); 6-His (C); made in house; host or cells: baculovirus-infected insect cells (Tn5), then limited chymotrypsin digestion
# T5 sequence (A0A509AM03 257-574): as the sequence (A0A509AM03 257-574) above
# [9] = target: T1, recombinant Plasmodium falciparum …; assay: cell-based or functional assay
# [10] = ref Withers-Martinez et al., 2002
molecule,measurement,setting,value
CC[C@H](C)[C@H](NC(=O)[C@H](CCCCN)NC(C)=O)C(=O)N[C@H](C(=O)N[C@@H](C)C(=O)N[C@@H](CCC(N)=O)C(=O)Nc1ccc2c(C)cc(=O)oc2c1)[C@@H](C)O [Ac-KITAQ-AMC] (Ac-KITAQ-{AMC}),hydrolysis by rPfSUB1cat,[1],completely resistant to hydrolysis
CC[C@H](NC(=O)[C@H](C)NC(=O)[C@@H](NC(=O)[C@@H](NC(=O)[C@H](CCCCN)NC(C)=O)[C@@H](C)CC)[C@@H](C)O)C(=O)C(=O)NC1CC1 [KS-182] (Ac-KITA[Abu(ψCOCO)]-NHcPr),IC50,[2],≥ 100 µM
same,IC50,[3],~12 µM and 12 µM
same,Ki,[4],7.3 µM
same,IC50,[4],~6 µM and 6 µM
CC[C@H](C)[C@H](NC(=O)[C@H](CCCCN)NC(C)=O)C(=O)N[C@H](C(=O)N[C@@H](C)C(=O)NC(C)C(=O)C(=O)NCCC(=O)O)[C@@H](C)O (stereo partly shown) [KS-466] (Ac-KITA[ξ3Amino2oxobutanoyl][βAla]-OH),IC50,[3],2 µM and ~2 µM
same,Ki,[4],0.7 µM
same,IC50,[4],1 µM and ~1 µM
"O=S(=O)(F)Cc1ccccc1 [PMSF, phenylmethylsulfonyl fluoride]",effect of PMSF on PfSUB1,[5]; [10],unaffected
"O=C(O)c1cc[c]([Hg][OH])cc1 [pHMB, para-hydroxymercuribenzoate]",inhibition of PfSUB1 by pHMB,[5]; [10],potently inhibited
Ac-CITAQSDEEC (cysteine pairing not given here) [SERA4st1F-6R-S],effect of P1′ Asp to Ser substitution (vs SERA4st1F-6R) on cleavage by rPfSUB1cat,[6],no significant effect
same,fold increase in initial hydrolysis rate by rPbSUB1cat vs SERA4st1F-6R,[7],5.8 fold
Ac-DVSGQ↓SENHQ [Ac-DVSGQ ↓ SENHQ],cleavage by rPbSUB1 at the expected position,[8],correctly cleaved
Ac-EIKAET,hydrolysis by rPfSUB1cat,[1],No hydrolysis
"Ac-KITAQADAES [SERA4st1-ADA, SERA4st1 with P1′ and P3′ residues replaced by Ala]",reduction of substrate peak intensity,[1],~1%
same,"initial cleavage rate, fold lower than that of parental SERA4st1","[1]; equimolar mixture of both peptides, SERA4st1 digested ⩽20%",at least 80 fold
"Ac-KITAQDDEES [SERA4st1, N-acetylated decapeptide based on a PfSUB1 processing site in SERA4]",reduction of substrate peak intensity,[1],84.6%
Ac-TTRAE↓SEEDI [Ac-TTRAE ↓ SEEDI],cleavage by rPbSUB1 at the expected position,[8],correctly cleaved
Ac-TTSGQ↓SSTEP [Ac-TTSGQ ↓ SSTEP],cleavage by rPbSUB1 at the expected position,[8],correctly cleaved
Ac-VVTGE↓SEETS [Ac-VVTGE ↓ SEETS],cleavage by rPbSUB1 at the expected position,[8],correctly cleaved
PfSUB1 prodomain (PD) released by autocatalytic cleavage of rPfSUB1 (domain or fragment) KEVRSEENGKIQDDAKKIVSELRFLEKVEDVIEKSNIGGNEVDADENSFNPDTEVPIEEIEEIKMRELKDVKEEKNKNDNHNNNNNNNNISSSSSSSSNTFGEEKEEVSKKKKKLRLIVSENHATTPSFFQESLLEPDVLSFLESKGNLSNLKNINSMIIELKEDTTDDELISYIKILEEKGALIESDKLVS,initial rate of cleavage of fluorogenic substrate SERA4st1F-6R12 (0.1 uM) by rPfSUB1cat (prodomain largely degraded) against an equivalent mass of untreated rPfSUB1 (with its prodomain),[9],9.8 fold
same,inhibitor potency against cognate enzyme,"[5]; ref Jean et al., 2003",~0.005 µM
